Reference: PubChem BioAssay AID330 (DTP/NCI, 2004)
Where “and” joins values, the source holds several entries; their conditions need not be identical. Identical values can stand only once. Inconclusive results and toxic doses are left out.

Test system: P388 leukemia ip, CD2F1 mice, survival T/C
Assay: NCI In Vivo Anticancer Drug Screen. Data for tumor model P388 Leukemia (intraperitoneal) in CD2F1 (CDF1) mice
Settings: endpoint: median survival time, higher = longer survival
Procedure, shortened: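 Mice carrying the transplanted tumor received test compound or vehicle. Survival was recorded in each group, and the value is the treated-group measurement divided by that of the vehicle-treated control group.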

[1] = dose: 25.0 mg/kg/injection, schedule: Q01DX009 (ip), vehicle: saline with Tween-80
[2] = dose: 50.0 mg/kg/injection, schedule: Q01DX009 (ip), vehicle: saline with Tween-80
[3] = dose: 100.0 mg/kg/injection, schedule: Q01DX009 (ip), vehicle: saline with Tween-80
[4] = dose: 100.0 mg/kg/injection, schedule: Q04DX003 (ip), vehicle: saline with Tween-80
[5] = dose: 200.0 mg/kg/injection, schedule: Q04DX003 (ip), vehicle: saline with Tween-80
[6] = dose: 400.0 mg/kg/injection, schedule: Q04DX003 (ip), vehicle: saline with Tween-80
[7] = dose: 100.0 mg/kg/injection, schedule: Q04DX002 (ip), vehicle: saline with Tween-80
[8] = dose: 200.0 mg/kg/injection, schedule: Q04DX002 (ip), vehicle: saline with Tween-80
[9] = dose: 50.0 mg/kg/injection, schedule: Q01DX005 (ip), vehicle: saline with Tween-80
[10] = dose: 100.0 mg/kg/injection, schedule: Q01DX005 (ip), vehicle: saline with Tween-80
[11] = dose: 200.0 mg/kg/injection, schedule: Q01DX005 (ip), vehicle: saline with Tween-80
[12] = dose: 60.0 mg/kg/injection, schedule: Q01DX005 (ip), vehicle: Klucel (hydroxypropylcellulose) (HPC)
[13] = dose: 120.0 mg/kg/injection, schedule: Q01DX005 (ip), vehicle: Klucel (hydroxypropylcellulose) (HPC)
[14] = dose: 240.0 mg/kg/injection, schedule: Q01DX005 (ip), vehicle: Klucel (hydroxypropylcellulose) (HPC)
[15] = dose: 12.5 mg/kg/injection, schedule: Q01DX005 (ip), vehicle: saline with Tween-80
[16] = dose: 25.0 mg/kg/injection, schedule: Q01DX005 (ip), vehicle: saline with Tween-80
[17] = dose: 60.0 mg/kg/injection, schedule: Q01DX005 (ip), vehicle: saline with Tween-80

For `Nc1[nH]nc2nc(-c3ccccc3)cnc12`, the T/C [1] was 90 % of control, the T/C [2] was 86 % of control and the T/C [3] was 90 % of control. The T/C [4] was 90 % of control, the T/C [5] was 90 % of control and the T/C [6] was 90 % of control.
With `C#C/C=C/CC1OC(CC)/C=C\C=C/CC1Cl` (configuration not stated) the T/C (dose: 2.0 mg/kg/injection, schedule: Q01DX009 (ip), vehicle: Klucel (hydroxypropylcellulose) (HPC)) was 100 % of control, the T/C (dose: 4.0 mg/kg/injection, schedule: Q01DX009 (ip), vehicle: Klucel (hydroxypropylcellulose) (HPC)) was 109 % of control and the T/C (dose: 8.0 mg/kg/injection, schedule: Q01DX009 (ip), vehicle: Klucel (hydroxypropylcellulose) (HPC)) was 96 % of control. For the same compound, the T/C (dose: 16.0 mg/kg/injection, schedule: Q01DX009 (ip), vehicle: Klucel (hydroxypropylcellulose) (HPC)) was 104 % of control.
In the case of `CSC(=S)SC(SC)S(C)(=O)=O` (configuration not stated), the T/C (dose: 3.12 mg/kg/injection, schedule: Q01DX009 (ip), vehicle: Klucel (hydroxypropylcellulose) (HPC)) is reported as 103 % of control, the T/C (dose: 6.25 mg/kg/injection, schedule: Q01DX009 (ip), vehicle: Klucel (hydroxypropylcellulose) (HPC)) is reported as 112 % of control and the T/C (dose: 12.5 mg/kg/injection, schedule: Q01DX009 (ip), vehicle: Klucel (hydroxypropylcellulose) (HPC)) is reported as 110 % of control and 117 % of control. For the same compound, the T/C (dose: 25.0 mg/kg/injection, schedule: Q01DX009 (ip), vehicle: Klucel (hydroxypropylcellulose) (HPC)) was 93 % of control.
With `CC(=O)Nc1ncc(Sc2ccc([N+](=O)[O-])cc2)s1` the T/C (dose: 1.56 mg/kg/injection, schedule: Q04DX003 (ip), vehicle: saline) was 100 % of control, the T/C (dose: 3.13 mg/kg/injection, schedule: Q04DX003 (ip), vehicle: saline) was 99 % of control and the T/C (dose: 6.25 mg/kg/injection, schedule: Q04DX003 (ip), vehicle: saline) was 98 % of control. For the same compound, the T/C (dose: 12.5 mg/kg/injection, schedule: Q04DX003 (ip), vehicle: saline) was 97 % of control.
In the case of `CN=C(N)NN=C(c1ccc(I)cc1)c1ccc(I)cc1`, the T/C (dose: 25.0 mg/kg/injection, schedule: Q04DX002 (ip), vehicle: saline with Tween-80) is reported as 104 % of control, the T/C (dose: 50.0 mg/kg/injection, schedule: Q04DX002 (ip), vehicle: saline with Tween-80) is reported as 106 % of control and the T/C [7] is reported as 104 % of control.
`COc1ccc2c(ccc3c(N)ncnc32)c1` was tested, and the T/C [7] was 92 % of control and the T/C [8] was 103 % of control.
In the case of `C=C1C(=C)C2OC1c1cc3c(cc12)C(=O)c1ccccc1C3=O`, the T/C [9] is reported as 90 % of control, the T/C [10] is reported as 109 % of control and the T/C [11] is reported as 114 % of control.
In the case of `O=C(O)Cc1ccccc1C(=O)O.[Pb]`, the T/C [1] is reported as 90 % of control, the T/C [2] is reported as 104 % of control and the T/C [3] is reported as 86 % of control.
With `OC(C1CCCCC1)C1CCCCC1Cl` (configuration not stated) the T/C [9] was 102 % of control, the T/C [10] was 102 % of control and the T/C [11] was 102 % of control.
With `COC1(OC)OC(c2ccc([N+](=O)[O-])cc2)=C(c2ccc([N+](=O)[O-])cc2)OC1(OC)OC` the T/C [12] was 90 % of control and the T/C [13] was 87 % of control.
For `CCOP(=O)(c1ccccc1)N1CCOCC1` (configuration not stated), the T/C (dose: 100.0 mg/kg/injection, schedule: Q04DX003 (ip), vehicle: saline) was 105 % of control, the T/C (dose: 200.0 mg/kg/injection, schedule: Q04DX003 (ip), vehicle: saline) was 108 % of control and the T/C (dose: 400.0 mg/kg/injection, schedule: Q04DX003 (ip), vehicle: saline) was 95 % of control.
`CCCCCCCCCCCC(=O)c1c(O)cc(C)oc1=O` was tested, and the T/C [12] was 100 % of control, the T/C [13] was 98 % of control and the T/C [14] was 105 % of control.
`C=CC(=O)OCCCN(CCCC)CCCC` was tested, and the T/C (dose: 25.0 mg/kg/injection, schedule: Q01DX005 (ip), vehicle: Klucel (hydroxypropylcellulose) (HPC)) was 100 % of control, the T/C (dose: 50.0 mg/kg/injection, schedule: Q01DX005 (ip), vehicle: Klucel (hydroxypropylcellulose) (HPC)) was 95 % of control and the T/C (dose: 100.0 mg/kg/injection, schedule: Q01DX005 (ip), vehicle: Klucel (hydroxypropylcellulose) (HPC)) was 105 % of control. For the same compound, the T/C (dose: 200.0 mg/kg/injection, schedule: Q01DX005 (ip), vehicle: Klucel (hydroxypropylcellulose) (HPC)) was 105 % of control.
In the case of `N#[N+]c1ccc2c(S(=O)(=O)Oc3ccc(C(=O)c4ccccc4)c(OS(=O)(=O)c4cccc5c([O-])c([N+]#N)ccc45)c3)cccc2c1[O-]`, the T/C [15] is reported as 110 % of control, the T/C [16] is reported as 107 % of control and the T/C [9] is reported as 105 % of control and 107 % of control.
With `COc1cc2ccncc2cc1Oc1c(OC)c(OC)cc2ccncc12` the T/C [12] was 100 % of control, the T/C [13] was 90 % of control and the T/C [14] was 100 % of control.
`COc1cc(OC2OC(CO)C(O)C(O)C2O)ccc1/C=C\C(=O)c1ccc(OC2OC(CO)C(O)C(O)C2O)cc1` (configuration not stated) was tested, and the T/C [7] was 91 % of control, the T/C [8] was 96 % of control and the T/C (dose: 400.0 mg/kg/injection, schedule: Q04DX002 (ip), vehicle: saline with Tween-80) was 96 % of control.
With `COC(=O)[C@]1(C)CCC[C@]2(C)c3ccc(C(C)C)cc3C(=O)C[C@@H]12` the T/C [17] was 95 % of control, the T/C (dose: 120.0 mg/kg/injection, schedule: Q01DX005 (ip), vehicle: saline with Tween-80) was 94 % of control and the T/C (dose: 240.0 mg/kg/injection, schedule: Q01DX005 (ip), vehicle: saline with Tween-80) was 93 % of control.
With `CCn1c2ccc(N)cc2c2c(N)c(-n3cccc3)ccc21` the T/C [9] was 100 % of control, the T/C [10] was 100 % of control and the T/C [11] was 100 % of control.
For `CC(=O)OC1CCC2CC3(CCC1(C)C2=O)OCCO3` (configuration not stated), the T/C (dose: 100.0 mg/kg/injection, schedule: Q04DX003 (ip), vehicle: saline + Tween-80 + alcohol) was 100 % of control, the T/C (dose: 200.0 mg/kg/injection, schedule: Q04DX003 (ip), vehicle: saline + Tween-80 + alcohol) was 99 % of control and the T/C (dose: 400.0 mg/kg/injection, schedule: Q04DX003 (ip), vehicle: saline + Tween-80 + alcohol) was 103 % of control.
`CCN(CC)/C([Se])=N/N=C(\C)c1ccccn1` was tested, and the T/C (dose: 100.0 mg/kg/injection, schedule: Q04DX003 (ip), vehicle: Klucel (hydroxypropylcellulose) (HPC)) was 108 % of control and the T/C (dose: 200.0 mg/kg/injection, schedule: Q04DX003 (ip), vehicle: Klucel (hydroxypropylcellulose) (HPC)) was 102 % of control.
For `C[C@]12CC[C@H](OC(=O)COc3ccc(N(CCCl)CCCl)cc3)C[C@@H]1CC[C@@H]1[C@@H]2CC[C@]2(C)NC(=O)CC[C@@H]12`, the T/C (dose: 2.0 mg/kg/injection, schedule: Q01DX009 (ip), vehicle: saline with Tween-80) was 120 % of control, the T/C (dose: 8.0 mg/kg/injection, schedule: Q01DX009 (ip), vehicle: saline with Tween-80) was 151 % of control and 157 % of control and 192 % of control and the T/C (dose: 16.0 mg/kg/injection, schedule: Q01DX009 (ip), vehicle: saline with Tween-80) was 180 % of control and 184 % of control and 192 % of control. For the same compound, the T/C (dose: 32.0 mg/kg/injection, schedule: Q01DX009 (ip), vehicle: saline with Tween-80) was 107 % of control and 180 % of control and 217 % of control.
`C#CCOC(=O)C12CCC(C)(C)CC1C1=CCC3C4(C)CCC(O)C(C)(CO)C4CCC3(C)C1(C)CC2` (configuration not stated) was tested, and the T/C [15] was 101 % of control and the T/C [16] was 94 % of control.
In the case of `Fc1ccc(F)c(C(Nc2nncs2)Nc2nncs2)c1`, the T/C (dose: 30.0 mg/kg/injection, schedule: Q01DX005 (ip), vehicle: saline with Tween-80) is reported as 110 % of control and the T/C [17] is reported as 108 % of control and 119 % of control.
`CC1(C)CC2(C)OC2C2(C1)N=NC(=Nc1ccccc1)O2` (configuration not stated) was tested, and the T/C [2] was 105 % of control and 92 % of control, the T/C [3] was 120 % of control and 97 % of control and the T/C (dose: 200.0 mg/kg/injection, schedule: Q01DX009 (ip), vehicle: saline with Tween-80) was 108 % of control.
`[N-]=[N+]=NC(=O)c1ccccn1` was tested, and the T/C [1] was 101 % of control, the T/C [2] was 113 % of control and the T/C [3] was 120 % of control.
For `CC(=O)c1cc(CN(C)C)c(O)c(CN(C)C)c1`, the T/C (dose: 50.0 mg/kg/injection, schedule: Q01DX005 (ip), vehicle: saline) was 101 % of control, the T/C (dose: 100.0 mg/kg/injection, schedule: Q01DX005 (ip), vehicle: saline) was 99 % of control and the T/C (dose: 200.0 mg/kg/injection, schedule: Q01DX005 (ip), vehicle: saline) was 99 % of control.
With `CCOc1ccc(/C=N/Nc2ccc([N+](=O)[O-])cc2)cc1OC` the T/C [4] was 95 % of control, the T/C [5] was 90 % of control and the T/C [6] was 90 % of control.
For `CN1CCCCC1Cc1ccccc1` (configuration not stated), the T/C (dose: 6.25 mg/kg/injection, schedule: Q01DX005 (ip), vehicle: saline) was 103 % of control, the T/C (dose: 12.5 mg/kg/injection, schedule: Q01DX005 (ip), vehicle: saline) was 102 % of control and the T/C (dose: 25.0 mg/kg/injection, schedule: Q01DX005 (ip), vehicle: saline) was 100 % of control.
With `O=C(OCC(OC(=O)c1ccccc1)C(OC(=O)c1ccccc1)C(OC(=O)c1ccccc1)C(OC(=O)c1ccccc1)c1nn[nH]n1)c1ccccc1` (configuration not stated) the T/C [15] was 94 % of control, the T/C [16] was 86 % of control and the T/C [9] was 90 % of control and 100 % of control. For the same compound, the T/C [10] was 100 % of control and the T/C [11] was 96 % of control.
